Results: patent publication US20180333389A1, “VITAMIN E COMPOSITIONS AND METHODS OF USE THEREFOR” (BIOELECTRON TECHNOLOGY CORPORATION, priority 2017, published 2018)
Like-named read-outs stand apart in the source and are kept apart here. Each block holds one molecule with its values, some of them ahead of it.

How the values were obtained:
[1] = test system: Normal human fibroblast cells (NHF); experiment: Conversion of alpha-tocopherol to the corresponding quinone in NHF cells; format: in vitro ADME
Method: (§1) DMEM (Catalog no. 11995-040), Penicillin-streptomycin mix, Geneticin (G418) Sulfate were purchased from Thermo Fisher Scientific. Fetal Bovine Serum was obtained from Sigma Aldrich. Mouse striatum-derived ST HDH Q7/7 (Q7) cells were obtained from Dr. M. MacDonald (Massachusetts General Hospital). HepG2 cells were obtained from ATCC. Normal human fibroblast cells (NHF) were obtained from Coriell. Cell culture medium for Q7 cell was prepared by combining 50 mL Fetal Bovine Serum, 100 U/mL penicillin, 100 microgram/mL streptomycin, and 400 microgram/mL Geneticin (G418) Sulfate; DMEM was added to bring the final volume to 500 mL. For HepG2 cells and NHF, cell culture medium was made by combining 50 mL Fetal Bovine Serum, 100 U/mL penicillin, and 100 microgram/mL streptomycin; DMEM was added to bring the final volume to 500 mL. During the course of the experiments, these solutions were stored at 4° C. The cells were grown in 150-cm^2 tissue culture-treated flasks until they reached 90% confluency.
Test samples were supplied in 1.5 mL glass vials. The compounds were diluted with an appropriate volume of DMSO to result in a 10 mM stock solution. Once dissolved, they were stored at −20 ° C.
Test samples were applied according to the following protocol:
Q7, HepG2, and NHF Cells were seeded separately in clear bottom, 96-well tissue culture-treated polystyrene plates by resuspending each cell suspension at a density of 200,000 cells/mL in cell culture medium, then dispensing 50 microliters of cell suspension per well using an electronic multichannel pipette, corresponding to 10,000 cells/well. […]
(§2) Quantification of compounds was determined by mass spectrometry.
(§3) The rate of conversion of R,R,R-alpha-tocopherol (black bars) and a 1:1:1:1:1:1:1:1 equimolar mixture of all 8 stereoisomers of alpha-tocopherol (grey bars) to their corresponding quinones was measured in NHF cells and is shown in FIG. 3. The percent of total cellular compound in the quinone form was measured at two different dosed concentrations: 3 μM and 10 μM. […]

[2] = test system: Q7 cells (ST HDH Q7/7; immortalized mouse striatal cells); experiment: Q7 striatal cell survival assay upon cystine deprivation; format: cell-based; details: for EC50: Q7 cell survival after 18 h in cystine-free medium, Cell Titer Glo, read-out: EC50 (nM) geometric mean (n ≥ 3 independent experiments); for potency in rescuing Q7 cells from oxidative stress relative to the RRR isomer: compared with RRR-alpha-tocopherol
Method: In neuronal cells excess extracellular glutamate inhibits the cystine/glutamate antiporter leading to intracellular cysteine depletion, GSH depletion, ROS production and cell death, a phenomenon termed oxidative glutamate toxicity or oxytosis. Q7 cells (ST HDH Q7/7; immortalized mouse striatal cells) challenged with cystine-free media recapitulate this phenotype. An initial screen was performed to identify compounds effective in rescuing Q7 cells from death resulting from cystine deprivation. This method is further described in Yonezawa et al., J. Neurochem 67, 566-573 (1996), and Li et al., J Neurosci., 23, 5816-5826 (2003).
DMEM (Catalog no. 11995-040), DMEM without Cystine (Catalog no. 21013-024), PBS (Phosphate buffered saline), Penicillin-streptomycin mix, L-Glutamine and Pyruvate were purchased from Gibco. Fetal Bovine Serum was obtained from Mediatech, Inc. Mouse striatum derived ST HDH Q7/7 (Q7) cells were obtained from Dr. M. MacDonald (Massachusetts General Hospital). Methionine and Vitamin K2 were purchased from Sigma Aldrich. Cell Titer Glo 2.0 was purchased from Promega. Geneticin (G418) Sulfate was purchased from Santa Cruz Biotechnology. Cell culture medium (Growth medium) was made by combining 50 mL Fetal Bovine Serum, 100 U/mL penicillin, 100 microgram/mL streptomycin and 400 microgram/mL Geneticin (G418) Sulfate; DMEM was added to make the volume up to 500 mL. Assay medium (without Cystine) was made by combining 50 mL Fetal Bovine Serum, 100 U/mL penicillin, 100 microgram/mL streptomycin, 4 mM L-Glutamine, 1 mM Pyruvate and 30 mg/L Methionine; DMEM without Cystine was added to make the volume up to 500 mL. During the course of the experiments, these solutions were stored at 4° C. The cells were grown in 10-cm diameter tissue culture-treated dishes. Every fourth day, the cells were subcultured by trypsinization and re-seeding at a cell density of 500,000 cells per dish.
Test samples were supplied in 1.5 mL glass vials. The compounds were diluted with an appropriate volume of DMSO to result in a 1 mM stock solution. Once dissolved, they were stored at −20 ° C.
Q7 cells were cultured routinely as described herein. For 384-well cell survival assays, cells were seeded in clear bottom, black wall 384-well tissue culture-treated polystyrene plates by resuspending a cell suspension at a density of 50,000 cells/mL in growth medium, then dispensing 60 microliters of cell suspension per well using either an electronic multichannel pipette or a Multidrop™ Combi Reagent Dispenser (ThermoFisher Scientific), corresponding to 3,000 cells/well. The cell-containing plates were incubated 5 hours at 33° C. in an atmosphere with 95% humidity and 5% CO2 to allow attachment of the cells to the culture plate. 5 hours after cell seeding into the 384-well assay plate, the cell culture medium was replaced by washing 2 times with 70 microliters/well PBS (without Ca^++ and Mg^++) using a BioTek ELx405 plate washer. After the final aspiration, 60 microliters/well of assay medium (without cystine) was added using the Multidrop™ Combi Reagent Dispenser. […]
After medium change to cystine-free medium and compound addition, cell plates were incubated at 33° C. in an atmosphere of 5% CO2 and 95% humidity. […] After 15 minutes of incubation at room temperature, the luminescence (100 ms integration time) per well was determined using the BioTek Synergy plate reader. […]

[3] = test system: Mouse striatum-derived ST HDH Q7/7 (Q7) cells; experiment: Conversion of alpha-tocopherol to the corresponding quinone in Q7 cells; format: in vitro ADME; details: dosed at 1 μM, 3 μM and 10 μM, all three concentrations
Method: as §1, with “The cells were grown in 150-cm^2 tissue culture-treated flasks until they reached 90% confluency.” left out
as §2
as §3, with “in Q7” for “in NHF”, “FIG. 4.” for “FIG. 3.”, “at three” for “at two”, “concentrations: 1 μM,” for “concentrations:”, “3 μM,” for “3 μM”

HepG2 cells = experiment: Conversion of alpha-tocopherol to the corresponding quinone in HepG2 cells; format: in vitro ADME; details: dosed at 1 μM, 3 μM and 10 μM, all three concentrations
Method: as §1, with “The cells were grown in 150-cm^2 tissue culture-treated flasks until they reached 90% confluency.” left out
as §2
as §3, with “in HepG2” for “in NHF”, “FIG. 2.” for “FIG. 3.”, “at three” for “at two”, “concentrations: 1 μM,” for “concentrations:”, “3 μM,” for “3 μM”

[4] = target: SQR (sulfide:quinone oxidoreductase) (Homo sapiens, UniProt Q9Y6N5); experiment: SQR activity of alpha-tocopherol quinones (rate of quinone reduction, absorbance at 266 nm); format: biochemical; details: for rate of quinone reduction by SQR: 100 μM quinone, 25 nM SQR, 25° C., pH 7.5
Sequence of SQR (sulfide:quinone oxidoreductase) (Q9Y6N5 whole entry): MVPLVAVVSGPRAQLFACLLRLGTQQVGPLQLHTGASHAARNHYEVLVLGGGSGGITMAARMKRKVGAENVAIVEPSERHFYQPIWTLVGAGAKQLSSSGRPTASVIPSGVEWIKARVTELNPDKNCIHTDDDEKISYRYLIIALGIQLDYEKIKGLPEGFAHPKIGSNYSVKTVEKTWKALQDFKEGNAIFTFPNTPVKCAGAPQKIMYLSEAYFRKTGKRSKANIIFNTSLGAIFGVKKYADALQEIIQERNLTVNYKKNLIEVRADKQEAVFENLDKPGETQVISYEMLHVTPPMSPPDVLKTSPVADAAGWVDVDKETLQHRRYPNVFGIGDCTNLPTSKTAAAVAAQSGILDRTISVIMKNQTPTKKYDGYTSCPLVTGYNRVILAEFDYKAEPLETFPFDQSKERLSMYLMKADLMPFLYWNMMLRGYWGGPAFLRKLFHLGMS
Method: SQR activity in the presence of varying concentrations of the isomers of quinone derivatives of Vitamin E was evaluated by monitoring the rate of quinone reduction using the absorbance of the quinone at 266 nm. Assays were conducted at 25° C. and pH 7.5 in a volume of 100 μL in the following buffer system: 100 mM Tris, 0.5 mM EDTA, 1.0% (w/v) Triton X-100 reduced. Sulfide (as Na2S nonahydrate) as reducing substrate and sulfite (as Na2SO3) as sulfur acceptor substrate were held constant at saturating concentrations of 200 μM and 2 mM, respectively. Quinone substrates were added to final concentrations between 0-200 μM from DMSO stock solutions resulting in 2% final concentration of DMSO (enzymatic rates were independent of DMSO concentration in this range). SQR was added at 25 nM.

- percent of compound converted, times higher than the mixture of all 8 stereoisomers ([1]; 3 μM): approximately 3 times
- percent of compound converted, times higher than the mixture of all 8 stereoisomers ([1]; 10 μM): approximately 2 times
- percent of compound converted to the quinone form, compared with mixture of all 8 stereoisomers ([1]; dosed at 3 μM and 10 μM, both concentrations): higher
- percent of compound converted to the quinone form, compared with mixture of all 8 stereoisomers [3]: higher
- percent of compound converted to the quinone form, compared with mixture of all 8 stereoisomers (HepG2 cells): higher
SMILES: Cc1c(C)c2c(c(C)c1O)CC[C@@](C)(CCC[C@H](C)CCC[C@H](C)CCCC(C)C)O2 [RRR-alpha-tocopherol, (R,R,R)-alpha-tocopherol]
- EC50 ([2]; Mus musculus): 175 nM

SMILES: Cc1c(C)c2c(c(C)c1O)CC[C@](C)(CCC[C@H](C)CCC[C@H](C)CCCC(C)C)O2 [SRR-alpha-tocopherol]
- EC50 ([2]; Mus musculus): 372 nM
- potency in rescuing Q7 cells from oxidative stress relative to the RRR isomer [2]: approximately half as potent as the RRR isomer

SMILES: CC1=C(C)C(=O)C(CC[C@](C)(O)CCC[C@H](C)CCC[C@H](C)CCCC(C)C)=C(C)C1=O [R,R,R-alpha-tocopherol quinone, (R,R,R)-alpha-tocopherol quinone]
- reduction rate relative to the corresponding S,R,R stereoisomer ([4]; 100 μM each): more than twice
- rate of quinone reduction by SQR [4]: around 125 nM/s
- rate of SQR reduction as a function of concentration ([4]; in the absence of the S,R,R isomer): increases with increasing R,R,R-alpha-tocopherol quinone concentration
- rate of SQR reduction, upper limit with increasing concentration of the R,R,R isomer ([4]; in the presence of S,R,R-alpha-tocopherol quinone): ≤ 100 nM/s

SMILES: CC1=C(C)C(=O)C(CC[C@](C)(O)CCC[C@H](C)CCC[C@H](C)CCCC(C)C)=C(C)C1=O [S,R,R-alpha-tocopherol quinone, reference compound]
- rate of quinone reduction by SQR [4]: about 50 nM/s
- effect on the activity of the R,R,R isomer (SQR activity) ([4]; 1:1 mixture versus pure R,R,R isomer): inhibitory effect

SMILES: Cc1c(C)c2c(c(C)c1O)CCC(C)(CCCC(C)CCCC(C)CCCC(C)C)O2 (single isomer, unassigned) [Equal mixture of all 8 stereoisomers of alpha-tocopherol, all-rac alpha-tocopherol]
- EC50 [2]: 313 nM
- potency in rescuing Q7 cells from oxidative stress relative to the RRR isomer [2]: approximately half as potent as the RRR isomer
